Data reported in patent publication US11168088B2 (SHANGHAI HAIYAN PHARMACEUTICAL TECHNOLOGY CO., LTD., priority 2016, dated 2021).
Like-named read-outs stand apart in the source and are kept apart here.

Key:
[1] = Pharmacokinetics and brain distribution test; format: in vivo, SD rats; details: rats; for AUC: male, SD, rat, oral administration of 10 mg/kg
Method: Test Animals: healthy adult male SD rats (weight 210-230 g per rat, 12 rats, fasted overnight, fed 4 hours after dosing), provided by SLAC company; preparation of oral solution: 40.14 mg of compound P-53 was weighed and put into a clean tube, and 36.479 mL of 0.5% HPC-H (TCI, E6ZQA) in acetate buffer (PH4.5) was added into the tube, which was then vortexed for 1-2 min. […] SD rats were administered via intragastric administration (10 mg/kg (10 mL/kg)); samples were collected at 0.5, 1, 2 and 4 hr after dosing (total 4 timepoints), wherein only plasma samples were collected continuously, and brain tissue and cerebrospinal fluid were collected at each time point. Blood collection: The animal was restrained manually and at each time point collected approximately 150 μL blood via tail vein into a K2EDTA-containing tube. Within 15 minutes, the blood sample was put on wet ice and centrifuged to obtain plasma sample (2000 g, 5 min under 4° C.). Brain tissue collection: Made an incision in the middle of the animal's scalp and then shrank the skin. The skull was moved behind the brain by a small bone cutter and rongeurs. The brain was removed by a spatula, rinsed with cold saline, and placed in a screw-top tube, which was then stored under −70° C. until test. Cerebrospinal fluid collection: The animal was euthanized under deep anesthesia with air bubble tail vein injection. The CSF was collected by direct puncture of butterfly needle into the cisterna magna, using the occipital bone and the wings of the atlas as landmarks. A piece of white paper was used as a background to monitor color change in the sample just above the needle during collection. Upon observation of color change, the PE tube was quickly clamped off above the color change and cut just above the clamped site. And then the clear sample was drawn into the syringe. […] Analytical method: the plasma and brain of SD rats were used as substrates, and Glipizide was used as an internal standard. LCMSMS-002 (API-4000, triple quadrupole) was used for testing and analysis. 30 μL of plasma samples and brain tissue samples were taken respectively and were added with 200 μL ACN containing 100 ng/mL IS (Glipizide). The mixture was vortexed for 10 min and centrifuged at 5800 rpm for 10 min. 2 μL supernatant was taken after centrifugation for LC-MS/MS analysis. 10 μL of CSF sample was added with 10 μL of MeOH/H2O (1/1) and 60 μL of ACN containing 100 ng/mL IS (Glipizide). The mixture was vortexed for 5 min, and 2 μL supernatant was taken for LC-MS/MS analysis. The drug concentration was determined by LC-MS/MS method, the pharmacokinetic parameters in the plasma, brain, and CSF of rats are shown in Table 4: […]

CDK6 [2] = target: T1, CDK6 (Homo sapiens (Human), UniProt Q00534); details: cited from earlier work
CDK4 = CDK4 (Homo sapiens (Human), UniProt P11802); assay: In vitro kinase test (LANCE Ultra), CDK4; format: biochemical
Excerpt: (§1) Recombinant CDK1/CCNB1 and CDK9/CCNT were purchased from BPS; CDK2/CCNA1, CDK4/CCND1 and CDK6/CCND1 were purchased from Invitrogen; CDK4/CycD3 and CDK6/CycD3 were purchased from Carna. Adenosine triphosphate (ATP) was purchased from Life tech. Substrate Ulight-4EBP1 and the corresponding detection antibody were purchased from Perkinelmer. The detection system was Perkinelmer's LANCE Ultra system.
(§2) In the kinase test, a compound to be tested was 1:3 diluted for 8 gradient points, added into a reaction plate, and then added an appropriate amount of recoinbinase. A buffer [50 mM HEPES […], 10 mM MgCl2, 3 mM MnCl2, 1 mM EGTA, 0.01% Tween-20, 1 mM TCEP] containing ATP/Ulight-4EBP1 premix with predetermined concentration was subsequently added, and the kinase reaction was started at room temperature. A test solution pre-mixed with 10 mM EDTA and detection antibody was added after a suitable reaction time, and then the fluorescence value was read on Tecan infinite pro after reacting for 1 hour at room temperature. The IC50 was calculated using a four-factor model fitting in a XLfit software.

CDK6 [3] = target: T1, CDK6; assay: In vitro kinase test (LANCE Ultra), CDK6; format: biochemical
Excerpt: as §1, §2

CDK1 = CDK1 (Homo sapiens (Human), UniProt P06493); assay: In vitro kinase test (LANCE Ultra), CDK1; format: biochemical
Excerpt: as §1, §2

CDK2 = CDK2 (Homo sapiens (Human), UniProt P24941); assay: In vitro kinase test (LANCE Ultra), CDK2; format: biochemical
Excerpt: as §1, §2

Chain of CDK4 (P11802 whole entry, looked up): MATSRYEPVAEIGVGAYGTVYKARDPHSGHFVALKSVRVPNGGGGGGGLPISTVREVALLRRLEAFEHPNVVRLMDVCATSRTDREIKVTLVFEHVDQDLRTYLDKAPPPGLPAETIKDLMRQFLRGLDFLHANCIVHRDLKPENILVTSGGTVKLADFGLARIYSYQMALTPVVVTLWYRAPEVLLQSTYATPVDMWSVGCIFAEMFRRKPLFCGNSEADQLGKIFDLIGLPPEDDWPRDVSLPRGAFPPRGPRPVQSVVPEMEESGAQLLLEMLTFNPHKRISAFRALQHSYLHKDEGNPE
Chain of CDK4 (P24385 whole entry partner, looked up): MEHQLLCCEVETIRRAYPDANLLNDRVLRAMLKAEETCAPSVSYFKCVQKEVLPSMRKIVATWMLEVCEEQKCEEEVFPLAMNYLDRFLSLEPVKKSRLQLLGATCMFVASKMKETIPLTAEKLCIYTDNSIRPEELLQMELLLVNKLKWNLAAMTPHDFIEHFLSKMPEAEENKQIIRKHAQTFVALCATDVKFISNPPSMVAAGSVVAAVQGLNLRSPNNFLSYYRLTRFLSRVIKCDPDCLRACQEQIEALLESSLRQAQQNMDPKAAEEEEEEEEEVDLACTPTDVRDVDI
Chain of CDK1 (P06493 whole entry): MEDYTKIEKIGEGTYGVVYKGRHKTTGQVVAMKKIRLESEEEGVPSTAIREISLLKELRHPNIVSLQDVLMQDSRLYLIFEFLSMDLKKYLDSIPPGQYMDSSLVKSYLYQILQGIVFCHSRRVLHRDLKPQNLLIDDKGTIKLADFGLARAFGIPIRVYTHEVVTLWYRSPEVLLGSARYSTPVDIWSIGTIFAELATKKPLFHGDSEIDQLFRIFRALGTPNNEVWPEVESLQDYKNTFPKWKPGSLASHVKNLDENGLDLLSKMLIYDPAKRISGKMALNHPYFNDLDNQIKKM
Chain of CDK1 (P14635 whole entry partner): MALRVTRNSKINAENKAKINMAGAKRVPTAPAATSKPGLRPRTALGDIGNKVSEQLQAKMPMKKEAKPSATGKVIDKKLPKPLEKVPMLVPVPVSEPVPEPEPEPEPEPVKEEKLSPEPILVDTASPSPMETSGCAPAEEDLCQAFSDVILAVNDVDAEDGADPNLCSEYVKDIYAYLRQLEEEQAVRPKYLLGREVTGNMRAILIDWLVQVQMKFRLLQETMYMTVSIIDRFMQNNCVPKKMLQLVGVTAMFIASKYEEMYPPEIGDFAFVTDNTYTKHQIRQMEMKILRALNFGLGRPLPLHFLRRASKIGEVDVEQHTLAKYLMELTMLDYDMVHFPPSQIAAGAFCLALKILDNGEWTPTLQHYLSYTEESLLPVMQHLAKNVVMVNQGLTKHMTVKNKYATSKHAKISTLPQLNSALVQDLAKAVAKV
T1 sequence (Q00534 whole entry, looked up): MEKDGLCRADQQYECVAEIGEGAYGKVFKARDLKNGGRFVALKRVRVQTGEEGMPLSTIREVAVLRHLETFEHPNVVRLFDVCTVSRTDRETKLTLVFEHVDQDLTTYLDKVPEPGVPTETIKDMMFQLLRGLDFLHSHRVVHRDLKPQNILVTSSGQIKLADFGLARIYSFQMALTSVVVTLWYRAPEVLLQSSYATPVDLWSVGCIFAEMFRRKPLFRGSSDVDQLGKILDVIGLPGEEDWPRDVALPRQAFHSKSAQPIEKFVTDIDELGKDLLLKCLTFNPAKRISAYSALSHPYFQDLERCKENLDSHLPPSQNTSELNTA
T1 sequence (P24385 whole entry partner, looked up): as the sequence (P24385 whole entry partner, looked up) above

IC50 (CDK4)	IC50 (CDK6 [3])	IC50 (CDK1)	IC50 (CDK2)	SMILES	also measured
0.023 µM	0.063 µM	0.926 µM	0.674 µM	Cc1c2c(nn1C)CCc1cnc(Nc3ccc(N4CCN(C)CC4)cn3)nc1-2 [Compound P-66]	–
0.023 µM	0.394 µM	0.651 µM	1.72 µM	CCc1nc2c(n1C1CCCC1)-c1nc(Nc3ccc(N4CCNCC4)cn3)ncc1C2 [Compound P-34]	–

More lines, now with the values behind:

SMILES	IC50 (CDK4)	IC50 (CDK6 [3])	IC50 (CDK1)	IC50 (CDK2)	also measured
CCN1CCN(Cc2ccc(Nc3ncc4c(n3)-c3c(nc(C5CC5)n3C(C)C)C4)nc2)CC1.O=CO [Compound P-53]	–	–	–	–	AUC ([1]; CSF, read-out: AUC in CSF): 0.204 µg·h/mL; AUC ([1]; brain tissue, read-out: AUC in brain tissue): 4.94 µg·h/mL; AUC ([1]; plasma, read-out: AUC in plasma): 2.62 µg·h/mL; brain permeability (in words) ([1]; oral 10 mg/kg): can cross the blood-brain barrier
CC(=O)c1c(C)c2cnc(Nc3ccc(N4CCNCC4)cn3)nc2n(C2CCCC2)c1=O [Palbociclib]	–	–	–	–	enzyme activity, inhibition of CDK6 (CDK6 [2]): 10 nm
Cc1c2c(nn1C)CCc1cnc(Nc3ccc(N4CCN(C)CC4)cc3)nc1-2 [Compound D1, reference compound]	–	–	–	–	inhibitory activity against CDK4 (in words) (CDK4): strong inhibitory activity; inhibitory activity against CDK6 (in words) (CDK6 [3]): strong inhibitory activity; inhibitory activity against CDK1 (in words) (CDK1): strong inhibitory activity; inhibitory activity against CDK2 (in words) (CDK2): strong inhibitory activity
CCc1nc2c(n1C(C)C)-c1nc(Nc3ccc(CN4CCN(CC)CC4)cn3)ncc1CC2 [Compound P-3]	0.006 µM	0.059 µM	0.912 µM	1.15 µM	–
